{"source": "patent US9125416B2", "about": "“Pesticidal mixtures” (BASF SE, priority 2010, dated 2015)", "assay_type_in_all_cases": "in vivo", "key": {"[1]": {"test_system": "vetch aphid (Megoura viciae)", "experiment": "Test 1: Control of Vetch Aphid, broad bean leaf disks in 24-well-microtiter plates", "settings": "sprayed on leaf disks, aphid mortality and fecundity after 5 days"}, "[2]": {"test_system": "green peach aphid (Myzus persicae)", "experiment": "Test 2: Control of Green Peach Aphid, liquid artificial diet under artificial membrane, 96-well-microtiter plates", "settings": "aphid mortality and fecundity after 3 days"}, "[3]": {"test_system": "boll weevil (Anthonomus grandis)", "experiment": "Test 3: Control of Boll Weevil, insect diet with A. grandis eggs, 24-well-microtiter plates", "settings": "sprayed onto insect diet, egg and larval mortality after 5 days"}}, "data": [{"molecule": "Cc1c(COC(=O)[C@@H]2[C@H](/C=C(\\Cl)C(F)(F)F)C2(C)C)cccc1-c1ccccc1", "note": "(racemic) [Bifenthrin, bifenthrin]", "values": [{"measurement": "Oberved Control average", "setting": "[1]; 2 ppm", "value": 0, "unit": "%"}, {"measurement": "Oberved Control average", "setting": "[2]; 0.08 ppm in aphid diet", "value": 0, "unit": "%"}]}, {"molecule": "C[C@]1(COC(=O)C2CC2)[C@@H]2C[C@H](O)[C@@]3(C)Oc4cc(-c5cccnc5)oc(=O)c4[C@H](O)[C@@H]3[C@@]2(C)CC[C@@H]1OC(=O)C1CC1", "note": "[Compound I, [(3S,4R,4aR,6S,6aS,12R,12aS,12bS)-3-(cyclopropanecarbonyloxy)-6,12-dihydroxy-4,6a,12b-trimethyl-11-oxo-9-(pyridin-3-yl)-1,2,3,4,4a,5,6,6a,12a,12b-decahydro-11H,12H-benzo[f]pyrano[4,3-b]chromen-4-yl]methyl cyclopropanecarboxylate]", "values": [{"measurement": "Oberved Control average", "setting": "[1]; 0.004 ppm", "value": 25, "unit": "%"}, {"measurement": "Oberved Control average", "setting": "[2]; 0.004 ppm in aphid diet", "value": 0, "unit": "%"}, {"measurement": "Oberved Control average", "setting": "[3]; 0.02 ppm", "value": 0, "unit": "%"}]}, {"molecule": "O=C1C=C(N(CCF)Cc2ccc(Cl)nc2)CO1", "note": "[Compound M26.4, 4-{[(6-chloropyrid-3-yl)methyl](2-fluoroethyl)amino}furan-2(5H)-on]", "values": [{"measurement": "Oberved Control average", "setting": "[3]; 2 ppm", "value": 0, "unit": "%"}]}, {"molecule": "abamectin", "values": [{"measurement": "Oberved Control average", "setting": "[2]; 0.016 ppm in aphid diet", "value": 0, "unit": "%"}]}]}
